The results in this text go back to patent publication US20250127709A1, “COSMETIC COMPOSITION CONTAINING IRIS GERMANICA ROOT-DERIVED EXOSOMES AS AN ACTIVE INGREDIENT” (PP PRODUITS PRESTIGES SA, priority 2021, published 2025).

Common to all, as to type: cell-based, human
In one assay the test system is AQP3 (Aquaporin 3). The assay can be described thus: Moisturizing efficacy: AQP3 mRNA expression by RT-PCR in HEKa. Conditions: treated with 0.01%, positive control. On the procedure:
In order to confirm a moisturizing efficacy of the Iris germanica rhizome-derived exosomes, they were evaluated for their effect on AQP3 expression by comparing them with the Iris germanica rhizome extracts for each solvent. After inoculating a human epidermal keratinocyte (HEKa), they were cultured in a culture medium of Dulbecco Modified Eagle Medium (DMEM) supplemented with 100 IU/mL of penicillin and 100 μg/mL of streptomycin under 5% CO2 at 37° C. for 24 hours. After the culture, the medium was discarded, and the iris germanica rhizome-derived exosomes (stock concentration 9.90×10^9 particles/mL) and the iris germanica rhizome extracts for each solvent (stock concentration 100 mg/mL) were treated at each concentration and cultured for 48 hours. Thereafter, RNA was extracted from the cultured cells using a TransZol reagent, followed by performing RT-PCR (real-time genetic polymerase chain reaction) to measure an amount of mRNA change in AQP3 (Aquaporin 3), which is a moisturizing factor involved in moisture movement in the cells and is a protein that plays an important role in skin moisturization. A product generated by the PCR was identified with a Gel Documentation system by performing electrophoresis on a 1% agarose gel. In this case, a negative control group was treated with PBS, and a positive control group was treated with 0.01% of a hyaluronic acid. […]

Another assay concerns MMP-1. The assay can be described thus: Wrinkle improvement efficacy: MMP-1 mRNA expression in UVB-irradiated HDFa. Conditions: UVB 20 mJ/cm^2, treated with 50 μM, positive control. On the procedure:
In order to confirm an anti-aging efficacy of the Iris germanica rhizome-derived exosomes, they were evaluated for their effect on MMP-1 expression by comparing them with the Iris germanica rhizome extracts for each solvent. After inoculating a human dermal fibroblast (HDFa), they were cultured in a culture medium of Fibroblast Basal Medium (Medium 106) containing 100 IU/mL of penicillin and 100 μg/mL of streptomycin under 5% CO2 at 37° C. for 24 hours. After the culture, the medium was discarded, and the Iris germanica rhizome-derived exosomes (stock concentration 9.90×10^9 particles/mL) and the Iris germanica rhizome extracts for each solvent (stock concentration 100 mg/mL) were treated at each concentration and cultured for 48 hours. In order to induce cell damage, the remaining cultured cell groups except for the non-UVB irradiation group were removed from the medium, and then the medium was irradiated with 20 mJ/cm^2 of UVB and replaced with a new medium, which was then cultured for 24 hours. After 24 hours, RNA was extracted from the cultured cells using a TransZol reagent, followed by performing RT-PCR (real-time genetic polymerase chain reaction) to measure an amount of mRNA change in MMP-1, which is related to skin aging and wrinkle formation. A product generated by the PCR was identified with a Gel Documentation system by performing electrophoresis on a 1% agarose gel. […]

A further assay deals with COL1A1. The assay can be described thus: Wrinkle improvement efficacy: COL1A1 mRNA expression in HDFa. Conditions: treated with 50 μM, positive control. On the procedure: In order to confirm an anti-aging efficacy of the Iris germanica rhizome-derived exosomes, they were evaluated for their effect on COL1A1 expression by comparing them with the Iris germanica rhizome extracts for each solvent. After inoculating a human dermal fibroblast (HDFa), they were cultured in a culture medium of Fibroblast Basal Medium (Medium 106) containing 100 IU/mL of penicillin and 100 μg/mL of streptomycin under 5% CO2 at 37° C. for 24 hours. After culturing, the medium was discarded, and the Iris germanica rhizome-derived exosomes (stock concentration 9.90×10^9 particles/mL) and the Iris germanica rhizome extracts for each solvent (stock concentration 100 mg/mL) were treated at each concentration and cultured for 48 hours. After culturing, RNA was extracted from the cultured cells using a TransZol reagent, followed by performing RT-PCR (real-time genetic polymerase chain reaction) to measure an amount of mRNA change in collagen, which maintains a skin connective tissue. A product generated by the PCR was identified with a Gel Documentation system by performing electrophoresis on a 1% agarose gel. In this case, a negative control group was treated with PBS, and a positive control group was treated with 50 μM of retinyl palmitate. […]

For the compound hyaluronic acid, the AQP3 expression rate in the assay with AQP3 (Aquaporin 3) turned out to be 155.69%.

In the assay with MMP-1, `CCCCCCCCCCCCCCCC(=O)OC/C=C(C)/C=C/C=C(C)/C=C/C1=C(C)CCCC1(C)C` [retinyl palmitate] returned an MMP-1 expression rate of 72.81%. In the assay on COL1A1, this compound displayed a COL1A1 expression rate of 173.93%.
